Measurements published in patent US4503147A (priority 1981, dated 1985).
Structures can show the parent of a compound that is named as a salt. Where two headings read alike, the source gives them in different places.

Columns and labels:
[1] = tested on: monomethylamine-oxidizing enzyme; experiment: Substrate specificity and Km of the purified monomethylamine-oxidizing enzyme; assay type: biochemical, Bacillus sp. N - 104 (FERM BP-59); conditions: for Relative activity: substrate concentration 10 mM, activity for monomethylamine taken as 100
Experimental: […] To 1.0 ml of this substrate solution, is added 0.1 ml of an enzyme solution diluted with the same buffer solution and the mixture is subjected to reaction for 10 min. at 30° C. By adding 1 ml of 5N KOH solution, the enzymatic reaction is stopped. By this enzymatic reaction, monomethylamine is oxidatively decomposed to produce formaldehyde, ammonia and hydrogen peroxide. Then, to the reaction mixture is added 1 ml of 0.5 N hydrochloric acid solution containing 0.5% 4-amino-3-hydrazino-5-mercapto-1,2,4-triazole (to be abbreviated as AHMT hereinafter) and the mixture is subjected to reaction for 15 min. at 30° C. To the reaction mixture is added 1 ml of 0.2 N potassium hydroxide solution containing 0.75% KIO4 and the mixture is thoroughly stirred to develop a color. The colored solution is poured into a transparent cell and its absorption at 550 nm is measured to quantitatively determine the above produced formaldehyde.

[2] = tested on: monomethylamine-oxidizing enzyme; assay type: biochemical, Bacillus sp. N - 104 (FERM BP-59); conditions: pH 9
Experimental: Monomethylamine hydrochloride as substrate is dissolved into 0.1 M KH2 PO4 -Na2 B4 O7 buffer solution (pH 7) and the solution is ordinally adjusted to 1 mM concentration of substrate. To 1.0 ml of this substrate solution, is added 0.1 ml of an enzyme solution diluted with the same buffer solution and the mixture is subjected to reaction for 10 min. at 30° C. By adding 1 ml of 5N KOH solution, the enzymatic reaction is stopped. By this enzymatic reaction, monomethylamine is oxidatively decomposed to produce formaldehyde, ammonia and hydrogen peroxide. Then, to the reaction mixture is added 1 ml of 0.5 N hydrochloric acid solution containing 0.5% 4-amino-3-hydrazino-5-mercapto-1,2,4-triazole (to be abbreviated as AHMT hereinafter) and the mixture is subjected to reaction for 15 min. at 30° C. To the reaction mixture is added 1 ml of 0.2 N potassium hydroxide solution containing 0.75% KIO4 and the mixture is thoroughly stirred to develop a color. The colored solution is poured into a transparent cell and its absorption at 550 nm is measured to quantitatively determine the above produced formaldehyde.

[3] = 5 mM inhibitor, 10 min treatment at 30° C., activity without inhibitor taken as 100
[4] = 1 mM inhibitor, 10 min treatment at 30° C., activity without inhibitor taken as 100

SMILES: CCCCCN [n-Amylamine]
- Relative activity [1]: 19%

SMILES: CCCCN [n-Butylamine]
- Relative activity [1]: 18%

SMILES: CCN(CC)C(=S)[S-].[Na+] [sodium diethyldithiocarbamate]
- Residual activity [2, 3]: 59.3%

SMILES: CN [Monomethylamine]
- Km ([1]; pH 9.0): 62 µM
- Relative activity [1]: 100%

SMILES: NCCc1ccc(O)cc1 [Tyramine]
- Relative activity [1]: 0%

SMILES: NC(=O)CI [iodoacetamide]
- Residual activity [2, 4]: 2.2%

SMILES: CNC [Dimethylamine]
- Relative activity [1]: 0%

SMILES: NCCc1c[nH]cn1 [Histamine]
- Relative activity [1]: 1%

SMILES: CN(C)C [Trimethylamine]
- Relative activity [1]: 0%

SMILES: NCc1ccccc1 [Benzylamine]
- Relative activity [1]: 1%

SMILES: CC(C)N [i-Propylamine]
- Relative activity [1]: 0%

SMILES: [Cl][Hg][Cl] [HgCl2]
- Residual activity [2, 4]: 0%

SMILES: NCN [Diaminomethane]
- Relative activity [1]: 16%

SMILES: NCCO [Ethanolamine]
- Relative activity [1]: 1%

SMILES: O=C(O)CI [monoiodoacetic acid]
- Residual activity [2]: 34.0%

SMILES: c1cnc2c(c1)ccc1cccnc12 [O-phenanthroline]
- Residual activity [2, 3]: 70.9%

SMILES: N=C(N)NCCCCN [Agmatine]
- Relative activity [1]: 1%

SMILES: CCCCCCN [n-Hexylamine]
- Relative activity [1]: 10%

SMILES: NCCN [Ethylenediamine]
- Relative activity [1]: 0%

SMILES: O=C(O)c1cc[c]([Hg][Cl])cc1 [p-chloromercuribenzoic acid]
- Residual activity [2, 4]: 0.7%

SMILES: CCN [Ethylamine]
- Relative activity [1]: 90%

SMILES: NO [Hydroxylamine]
- Relative activity [1]: 0%

SMILES: NCCCCN [Putrescine]
- Relative activity [1]: 0%

SMILES: CC(C)CN [i-Butylamine]
- Relative activity [1]: 2%

SMILES: CCCN [n-Propylamine]
- Relative activity [1]: 60%

SMILES: NNC(N)=O [semicarbazide hydrochloride]
- Residual activity [2, 4]: 0%

SMILES: Oc1cccc2cccnc12 [8-oxyquinoline]
- Residual activity [2]: 34.0%
